Assay results published in US11465978B2, “Anthranilic amides and the use thereof” (THE ADMINISTRATORS OF THE TULANE EDUCATIONAL FUND, priority 2013, dated 2022).

Experiments:
MDA-MB 231 cells = assay: Crystal violet proliferation study; assay type: cell-based
Method: FIG. 11 is a graph showing the results of MDA-MB 231 proliferation studies. MDA-MB 231 cells were used as they express the triple negative cancer phenotype. Compound 3 was selected due to potency in inhibition of both MEK1/2 and MEK5. MDA-MB 231 cells were plated at 10,000 cells per well in a 96 well TC plate in 5% Charcoal-Dextran stripped media and incubated overnight at 37° C. in 5% CO2. The cells were treated with drug or vehicle the following day. Plates were harvested on days 3, 5 and 7 and stained with Crystal Violet. […] The cells were washed, lysed, and the absorbance of Crystal Violet sequestered in living cells was determined at […]. Wells were conducted in duplicate. Experiments were run in triplicate. Cells were normalized to initial cell count.
Proliferation studies were conducted using MDA-MB 231 cells, as they express the triple negative cancer phenotype. […] The cells were washed, lysed, and the absorbance of Crystal Violet sequestered in living cells was determined at […]. […]
Triple-negative breast cancer (TNBC) cells MDA-MB-231 were seeded in 96-well plates at a density of 2,000 cells per well in 5% charcoal-stripped phenol free DMEM, allowed to attach overnight, and subsequently treated with DMSO and MEK inhibitor compounds in duplicate. […] Cells were washed, lysed with 33% acetic acid, and the absorbance was read at 630 nm in a Biotek Synergy plate reader. […]

MDA-MB-231 xenograft = assay: Animal xenograft study, tumor volume; assay type: in vivo, SCID/beige female mice; conditions: SCID female mice, 1×10^6 MDA-MB231 cells bilaterally, 25 mg/kg on day 0, 30 days
Method: End point tumor volume for SCID female mice injected bilaterally with 1×10^6 MDA-MB231 cells, n=10. Animals were treated on day 0 (cell injection day) with either DMSO or SC-1-151 (25 mg/kg). Tumor size was measured biweekly for 30 days using a digital caliper. Bars represent final average tumor volume±SEM.
Immune-compromised SCID/beige female mice (29-32 days old) were obtained from Charles River Laboratories (Wilmington, Mass.). The animals were allowed a period of adaptation in a sterile and pathogen-free environment with food and water ad libitum. Breast cancer cells MDA-MB-231 were grown in 5% FBS charcoal-stripped DMEM for five days then harvested. Viable cells were mixed with PBS and Matrigel Reduced Factors (BD Biosciences, San Jose, Calif.). Injections (1×10^6 cells/injection) were made bilaterally into the mammary fat pad on day 0 (May 7, 2013). All the procedures in animals were carried out under anesthesia using a mix of isoflurane and oxygen delivered by mask. Animals were treated on day 0 with either DMSO or SC-1-151 (25 mg/kg). Tumor size was measured biweekly for 30 days using a digital caliper. Tumor volume was calculated using the following formula: 4/3πLM^2, where L is the larger radius and M is the smaller radius. On day 31, tumors were excised and blocked in OCT compound. Mice were monitored daily to insure survival after the surgery. […]

## NC(=O)c1ccc(F)c(F)c1Nc1ccc(I)cc1F [Compound 3, 3,4-difluoro-2-((2-fluoro-4-iodophenyl)amino)benzamide]
MDA-MB 231 cells; 7 day time point
  reduction in growth relative to untreated (DMSO): 70%
MDA-MB 231 cells; even at saturation concentrations
  overt cell death: No overt cell death
MDA-MB-231 xenograft
  tumorigenesis in vivo (end point tumor volume): decreases tumorigenesis
